{
  "source": "patent US20130287856A1",
  "about": "“Drug Delivery Dispersion And Film Formed Therefrom” (priority 2010, published 2013)",
  "data": [
    {"assay": "Extractable percent of unreacted silicone, second evaluation (cure rate with active agents)", "type": "physicochemical", "conditions": "active agent added to Dispersion 1 aged 1 week at 45° C.; slope of extractable plot; lower values = higher reactivity", "description": "(§1) After ageing, the samples are spread out onto silicon free Glassine paper and the water is allowed to evaporate such that the vinyl PDMS and SiH siloxane reaction and form films. More specifically, about 2 grams of each sample is spread using a 1.2 g/m^2 bar equipped with an automatic film application (type 4340 from Braive Instruments). At times from zero to 120 minutes, the percent of vinyl PDMS and SiH siloxane is determined using 30 ml of methylisobutyl ketone (MIBK). Additionally, silicone concentration on the Glassine paper resulting from reacted vinyl PDMS and SiH siloxane is determined by XRF using an Oxford Lab X-3000. The percent unreacted/extractable vinyl PDMS and SiH siloxane is plotted in an extractable plot set forth as FIG. 3. Additional samples of Dispersion 1 are aged for 1 week at 45° C. […] At this point, films are formed from these samples to determine an effect of the active agents on curing and reaction of the vinyl PDMS and SiH siloxane. More specifically, for these samples, an additional extractable plot is generated (not shown in the Figures) using the same method as described above. […] The results of these evaluations are set forth in Table 1 immediately below with lower values representing higher reactivity.", "units": {"Cure Rate After 3 Min. (%)": "%", "Cure Rate After 120 Min. (%)": "%"}, "values": [
      {"smiles": "Clc1ccccc1C(c1ccccc1)(c1ccccc1)n1ccnc1", "note": "[Clotrimazol, clotrimazol]", "Cure Rate After 3 Min. (%)": 25.7, "Cure Rate After 120 Min. (%)": 5.4},
      {"smiles": "O=C(O)c1ccccc1O", "note": "[Salicylic acid, salicylic acid]", "Cure Rate After 3 Min. (%)": 36.5, "Cure Rate After 120 Min. (%)": 12.1},
      {"smiles": "CC(C)(CO)[C@@H](O)C(=O)NCCCO", "note": "[Dexpanthenol, dexpanthenol]", "Cure Rate After 3 Min. (%)": 18.4, "Cure Rate After 120 Min. (%)": 4.8},
      {"smiles": "[Cl][Ag]", "note": "[AgCl]", "Cure Rate After 3 Min. (%)": 16.4, "Cure Rate After 120 Min. (%)": 3.3},
      {"smiles": "CCN(CC)CC(=O)Nc1c(C)cccc1C", "note": "[Lidocaine, lidocaine]", "Cure Rate After 3 Min. (%)": 21.1, "Cure Rate After 120 Min. (%)": 4.9},
      {"smiles": "Cn1c(=O)c2c(ncn2C)n(C)c1=O", "note": "[Caffeine, caffeine]", "Cure Rate After 3 Min. (%)": 31.7, "Cure Rate After 120 Min. (%)": 8.5},
      {"smiles": "O=C(O)c1cccnc1", "note": "[Vitamin B3, vitamin B3]", "Cure Rate After 3 Min. (%)": 43.3, "Cure Rate After 120 Min. (%)": 21.8}
    ]},
    {"assay": "Extractable percent of unreacted silicone, second evaluation (cure rate with active agents)", "type": "physicochemical", "conditions": "active agent in Dispersion 1; after 120 minutes", "description": "as §1", "values": [
      {"smiles": "O=C(O)c1ccccc1O", "note": "[Salicylic acid, salicylic acid]", "effect of active agent on cure (in words)": "slight inhibition of the cure"},
      {"smiles": "O=C(O)c1cccnc1", "note": "[Vitamin B3, vitamin B3]", "effect of active agent on cure (in words)": "slight inhibition of the cure"}
    ]}
  ]
}
